This note sets out measurements from patent publication US9103833B2, “Use of the GTPase Rab27B to diagnose and treat poor prognosis estrogen-receptor-positive breast cancer” (Universiteit Gent, priority 2009, dated 2015).

What is called inhibition is how much of the control response was suppressed.

The test system of one test is MCF-7 GFP-Rab27B cells. The test is described as follows: type I collagen invasion assay. Type of test: cell-based. Conditions: Homo sapiens, MCF7, 24 hours, MCF-7 GFP-Rab27B cells on type I collagen, P<0.001. As for the experimental part:
(§1) For the type I collagen invasion assay, the following precooled components were gently combined and defined as type I collagen solution: four volumes of type I collagen (stock is 3.49 mg/mL), five volumes of calcium- and magnesium-free Hank's balanced salt solution, one volume of MEM (10×), one volume of 0.25 M NaHCO3, 2.65 volumes of culture medium and 0.3 volumes of 1 M NaOH. For each test-condition, 1.25 mL of type I collagen solution was added to one well of 6-well plate, homogeneously spread and gelified on a flat surface in a humidified atmosphere of 10% CO2 in air at 37° C. for at least one hour. […]
(§2) Cell morphology was studied and invasion was scored after 24 hours (De Wever et al., (44)). […] It was calculated as (perimeter)^2÷(4π area), which describes the deviation of an object from a geometric circle. […] The number of invasive and non-invasive cells was counted in ten randomly selected microscopic fields with a 20× objective and 10× eye piece by two blinded observers using an inverted phase contrast microscope (DMI 3000B, Leica, Wetzlar, Germany). The invasion index was calculated as the ratio of the number of cells that invaded the gel divided by the total number of cells counted in each field. […]

A further test has as its system MCF-7 cells. The test can be described thus: type I collagen invasion assay with recombinant HSP90 proteins. The test is classed as cell-based, human. Conditions: 24 hours. As for the experimental part: as §1, §2
A further test concerns MCF-7 GFP cells. The test can be described thus: cell proliferation assay with recombinant HSP90α. The test is classed as cell-based, human. The note with it: 10 μg/mL added to culture medium; P<0.001. As for the experimental part: To examine whether Rab27B affects cell proliferation in a GTP-, geranylgeranyl-, and HSP90α-dependent manner, three sets of experiments were conducted: 1) proliferation rates of MCF-7 cells stably expressing GFP, GFP-Rab27B, GFP-Rab27B Q78L, GFP-Rab27B T23N, and GFP-Rab27B GER were compared; 2) proliferation rates of MCF-7 GFP-Rab27B cells transiently targeted with control or Rab27B siRNAs were studied; and 3) proliferation rates of MCF-7 GFP cells, treated with recombinant HSP90α, and MCF-7 GFP-Rab27B cells, challenged with control IgG or anti-HSP90α neutralizing antibody, were evaluated. To obtain a growth curve under each condition, triplicate wells of seeded cells were each counted five times. Two investigators independently counted the total number of cells in each well every 2 days for a total of 8 days with the use of a manual hemocytometer.

In test [1] the test system is cyclin A in MCF-7 GFP cells. The test can be described thus: cyclin A expression with recombinant HSP90α, Western blot. Type of test: cell-based, human. The note with it: 10 μg/mL. As for the experimental part:
For Western blot analysis MCF-7 cells (1-10×10^6) were harvested in Laemmli lysis buffer (0.125 M Tris-HCl [pH=6.8], 10% glycerol, 2.3% SDS). Cell lysates (25 μg) and CM (20 μL) were suspended in 10 μL reducing sample buffer (1M Tris-HCl [pH=6.8], 30% glycerol, 6% SDS, 3% β-mercaptoethanol, 0.005% bromophenol blue) and boiled for 5 minutes at 95° C. Samples were run on NuPage 4-20% Bis-Tris gradient gels (Invitrogen), transferred to PVDF membranes, blocked in 5% non-fat milk in PBS with 0.5% Tween-20, and immunostained. Scanning densitometry was carried out with the Quantity One Program (Bio-Rad).

Compound `COC1=C2C[C@@H](C)C[C@H](OC)[C@H](O)[C@@H](C)/C=C(\C)[C@H](OC(N)=O)[C@@H](OC)/C=C\C=C(/C)C(=O)NC(=CC1=O)C2=O` [geldanamycin] yielded an inhibition at 1 µM in the test on MCF-7 GFP-Rab27B cells of 85 to 100%. For the compound “recombinant HSP90β: HSP90β recombinant protein obtained from Stressgen”, in the test on MCF-7 cells (10 μg/mL recombinant protein), the “type I collagen invasion” value is reported as “no effect”. As for “recombinant HSP90α: HSP90α recombinant protein obtained from Stressgen”, the “type I collagen invasion” value in the test with MCF-7 cells (1-10 μg/mL recombinant protein, P=0.04 at 5 μg/mL, P=0.003 at 10 μg/mL) is reported as “dose-dependent increase”. Also, the “proliferation of MCF-7 cells” value with MCF-7 GFP cells was “increased proliferation”. For the same compound, the “cyclin A expression” value in test [1] was “increased cyclin A expression”.
